{
  "source": "patent US10857151B1",
  "about": "“Treatment of female genital schistosomiasis” (Villya LLC, priority 2020, dated 2020)",
  "key": {"[1]": {"test_system": "schistosomiasis worms in the vagina", "assay": "Microscope observation of vaginal swab sample slides for schistosomiasis worms in FGS after treatment", "format": "in vivo, human", "details": "after two weeks", "from_the_text": "A single dose of Praziquantel as described in Example 1 was vaginally inserted into the subject."}, "[2]": {"test_system": "blood-borne infection of schistosomiasis", "assay": "Blood test for schistosomiasis using Schisto POC-CCA in FGS after treatment", "format": "in vivo, human", "details": "female with FGS; three doses of 20 mg/kg oral praziquantel; after two weeks"}},
  "data": [
    {"smiles": "O=C(C1CCCCC1)N1CC(=O)N2CCc3ccccc3C2C1", "note": "(stereo not drawn) [praziquantel]", "values": [
      {"measurement": "observation of vaginal sample from brushing with a swab on microscope slides", "setting": "[1]; female with FGS, three doses of 20 mg/kg oral praziquantel", "result": "live schistosomiasis worms still in the vagina"},
      {"measurement": "slides observed under the microscope for schistosomiasis worms", "setting": "[1]; single dose vaginally inserted as in Example 1 (600 mg praziquantel in 2.5 g K-Y Jelly), same subject after oral treatment", "result": "negative for schistosomiasis worms"},
      {"measurement": "blood retested for schistosomiasis", "setting": "[2]", "result": "negative for schistosomiasis"}
    ]}
  ]
}
